Read-outs that look alike come from different tables or passages of the source. Bridge positions count the residues as written; N and C are the ends. Square brackets hold non-standard residues; d marks the D form. Ends that are not written are not given here. Abu = CC[C@H](N)C(=O)O
Legend:
[1] = system: mouse immature dendritic JAWSII cells; test: Chemotaxis assay, 48-well microchemotaxis chamber; assay type: cell-based; conditions: Fig. 9; n = 5
Method: Migration of JAWSII and CCR2-CHO-K1 cells in response to AvBD-12 analogues was determined using a 48-well microchemotaxis chamber technique as previously described. Chemotaxis buffer (Minimum Essential Medium containing 0.1% BSA, 100U/ml penicillin, and 100 μg/ml streptomycin) and bacterial peptide N-Formyl-methionyl-leucyl-phenylalanine (fMLF, Sigma-Aldrich) were included as negative and positive controls, respectively. The results were presented as chemotactic index (C.I.). C.I. = number of migrated cells induced by AvBDs / number of migrated cells induced by chemotactic buffer. The assay was repeated five times.

E. coli (ATCC 25922) = assay type: cell-based, Escherichia coli
Method: (§1) The minimum inhibitory concentrations (MIC) of AvBDs were determined according to the guidelines of the Clinical and Laboratory Standards Institute (CLSI). The Muller Hinton II broth used in standard MIC assays contained 20–25 mg/L of calcium and 10–12.5 mg/L of magnesium. Modified MICs of AvBDs were also determined under a low-salt and low-nutrient condition by using 100× diluted Muller Hinton II broth containing 0.2 mg/L of calcium, 0.1 mg/L magnesium and 5 mM (292 mg/L) NaCl. MIC obtained under the low-salt and low-nutrient condition was referred to as MIC-ls. AvBD peptides were two-fold serially diluted (2 to 256 μg/ml) in a 96-well microtiter plate. An equal volume (μl) of bacterial suspension was added to each well of the plate. The final bacterial concentration in the wells was 5 × 10^5 CFU/ml. […] To complement MIC-ls assays, the minimum bactericidal concentrations (MBC) were evaluated by sub-culturing the contents of the first two clear wells obtained in the MIC-ls assay onto LB agar plates. All assays were conducted in triplicate. The lowest peptide concentration inhibiting more than 99% of bacterial growth was defined as MBC-ls. AvBD analogues were regarded as bactericidal if the MBC was no more than four times the MIC [29].

S. aureus (ATCC 29213) = assay type: cell-based, Staphylococcus aureus
Method: as §1

CHO-K1 cells = test: MTT cell cytotoxicity assay; assay type: cell-based; conditions: 256 μg/ml; 4, 12, 24 and 48 hours; Student t-test treated vs untreated; n = 3; Figure S1
Method: Chicken macrophage cell lines MQ-NCSU and HD11 were maintained in RPMI-1640 media supplemented with 10% fetal bovine serum (FBS), 2% chicken serum, 100 U/ml penicillin and 100 μg/ml streptomycin (Sigma-Aldrich) at 37 °C in humidified air with 5% CO2. CHO-K1 cells were cultured in the same media without 2% chicken serum. For CCR2-transfected CHO-K1 cells, the medium was supplemented with 500 μg/ml G418 was added (Sigma-Aldrich). Murine immature dendritic cell line JAWSII (ATCC CRL-11904™) was cultured in Alpha minimum essential medium containing 4 mM L-glutamine, 1 mM sodium pyruvate, 5 ng/ml murine Granulocyte macrophage colony-stimulating factor (GM-CSF), 20% FBS, 100 U/ml penicillin and 100 μg/ml streptomycin at 37 °C in humidified air with 5% CO2. The cell cytotoxicity was determined using the MTT (3-(4, 5-dimethylthiazol-2-yl)-2, 5-diphenyltetrazolium bromide metabolic activity assay according to the manufacturer’s instruction (Thermo Fisher Scientific). Briefly, cells (5 × 10^3 cells/well) were seeded in 96-well tissue culture plates, incubated overnight and treated with AvBDs at concentrations of 4, 16, 64 and 256 μg/ml for 4, 12, 24 and 48 h at 37 °C. After treatment, 20 μl of 12 mM MTT solution was added to each well. The plate was incubated for 4 h and read at 540 nm. Viability was expressed as percentage of viable cells relative to the untreated control. The experiments were performed in triplicate.

[2] = system: S. Typhimurium (ATCC 14028); assay type: cell-based, Salmonella enteric serovar Typhimurium
Method: as §1

[3] = system: P. aeruginosa (ATCC 27853); assay type: cell-based, Pseudomonas aeruginosa
Method: as §1

[4] = system: Salmonella enteric serovar Typhimurium (ATCC 14028); assay type: cell-based; conditions: for percent of killing of S. Typhimurium: 16 μg/ml
Method: (§2) Escherichia coli (ATCC 25922), Pseudomonas aeruginosa (ATCC 27853), Salmonella enteric serovar Typhimurium (ATCC 14028) and Staphylococcus aureus (ATCC 29213) were used to assess the antimicrobial activity of AvBD analogues. All bacterial strains were grown on Luria-Bertani (LB) agar plates or Trypticase Soy Agar with 5% Sheep Blood (TSA, Thermo Fisher Scientific) plates at 37 °C. Antimicrobial activity was determined by a colony counting assay. In brief, bacteria were resuspended in 100-fold diluted Mueller Hinton II broth with 5 mM NaCl (minimal growth medium) to obtain a final bacterial concentration of 2 × 10^5 CFU/ml. Twenty-five microliters of bacterial suspension and 25 μl of AvBD analogue solution were mixed in the wells of a 96-well polypropylene microtiter plate (Nunc™, Thermo Fisher Scientific). The final peptide concentrations were 2, 4, 8, 16, 32, 64 and 128 μg/ml. The minimal growth medium without AvBD peptide was included as a negative control. The bacterial-peptide mixtures were incubated at 37 °C for 2 h, ten-fold serially diluted and plated on LB agar plates. The numbers of bacteria colonies were enumerated after 16 h of incubation at 37 °C. Antimicrobial activity was expressed as percent of killing using the following formula: (CFUcontrol - CFUtreated) / CFUcontrol × 100%. To assess the resistance of AvBD analogues to sodium chloride (NaCl), antimicrobial assays were carried out in the presence of 5 mM, 50 mM, 100 mM or 150 mM NaCl. All assays were performed in triplicate.

[5] = system: Escherichia coli (ATCC 25922); assay type: cell-based; conditions: ATCC 25922, 2 h, 16 μg/ml
Method: as §2

[6] = system: Pseudomonas aeruginosa (ATCC 27853); assay type: cell-based; conditions: ATCC 27853, 2 h; for percent of killing of P. aeruginosa: 16 μg/ml
Method: as §2

[7] = system: Staphylococcus aureus (ATCC 29213); assay type: cell-based; conditions: ATCC 29213, 2 h; for percent of killing of S. aureus: 16 μg/ml
Method: as §2

[8] = 100× diluted Muller Hinton II broth, 5 mM NaCl, 5 × 10^5 CFU/ml, 37 °C, 24 h, triplicate
[9] = CLSI, standard Muller Hinton II broth, 5 × 10^5 CFU/ml, 37 °C, 24 h, triplicate
[10] = sub-culture of clear MIC-ls wells on LB agar, lowest concentration inhibiting more than 99% of growth, triplicate

Substance	chemotactic activity for JAWSII cells (in words) [1]	MBC-ls E. coli (ATCC 25922) (E. coli (ATCC 25922); ATCC 25922, 24 h) [µg/mL]	MIC-ls E. coli (ATCC 25922) (E. coli (ATCC 25922); ATCC 25922, 24 h) [µg/mL]	MBC-ls S. aureus (ATCC 29213) (S. aureus (ATCC 29213); ATCC 29213, 24 h) [µg/mL]	MIC-ls S. aureus (ATCC 29213) (S. aureus (ATCC 29213); ATCC 29213, 24 h) [µg/mL]	MBC-ls S. Typhimurium (ATCC 14028) ([2]; ATCC 14028, 24 h) [µg/mL]	MIC-ls S. Typhimurium (ATCC 14028) ([2]; ATCC 14028, 24 h) [µg/mL]	MBC-ls P. aeruginosa (ATCC 27853) ([3]; ATCC 27853, 24 h) [µg/mL]	MIC-ls P. aeruginosa (ATCC 27853) ([3]; ATCC 27853, 24 h) [µg/mL]	percent of killing of S. Typhimurium ([4]; ATCC 14028, 2 h) [%]	percent of killing of E. coli [5] [%]	percent of killing of P. aeruginosa [6] [%]	percent of killing of S. aureus [7] [%]	further results
GPDSC^1NHDRGLC^2RVGNC^3NPGEYLAKYC^4FEPVILC^5C^6VRNRWA (bicyclic or more) [AvBD-12/6, group 3 hybrid peptide: backbone of AvBD-12 with amino acid residues of AvBD-6]	retained the chemotactic function	–	–	–	–	–	–	–	–	–	–	–	–	MIC-ls E. coli (ATCC 25922) (E. coli (ATCC 25922); [8]): 8 µg/mL; MIC E. coli (ATCC 25922) (E. coli (ATCC 25922); [9]): 256 µg/mL; MBC-ls E. coli (ATCC 25922) (E. coli (ATCC 25922); [10]): 32 µg/mL; MIC-ls S. aureus (ATCC 29213) (S. aureus (ATCC 29213); [8]): 256 µg/mL; MIC S. aureus (ATCC 29213) (S. aureus (ATCC 29213); [9]): 256 µg/mL; MBC-ls S. aureus (ATCC 29213) (S. aureus (ATCC 29213); [10]): 256 µg/mL; metabolic activity (viability relative to untreated control), CHO-K1 (CHO-K1 cells): No significant difference was found; MIC-ls S. Typhimurium (ATCC 14028) [2, 8]: 16 µg/mL; MIC S. Typhimurium (ATCC 14028) [2, 9]: >256 µg/mL; MBC-ls S. Typhimurium (ATCC 14028) [2, 10]: 64 µg/mL; MIC-ls P. aeruginosa (ATCC 27853) [3, 8]: 64 µg/mL; MIC P. aeruginosa (ATCC 27853) [3, 9]: >256 µg/mL; MBC-ls P. aeruginosa (ATCC 27853) [3, 10]: 256 µg/mL
GPDS[Abu]NHDRGLCRVGNCNPGEYLAKYCFEPVIL[Abu]CKPLSPTPTKT (disulfide 12-27, 17-35) [AvBD-12A4]	–	>256	128	>256	>256	>256	256	>256	256	–	–	–	–	killing activity against S. Typhimurium compared with AvBD-12 (in words) ([4]; 2 to 128 μg/ml, 2 h at 37 °C, p < 0.05, Fig. 4): weaker action than AvBD-12
GPDS[Abu]NHDRGL[Abu]RVGNCNPGEYLAKY[Abu]FEPVIL[Abu]CKPLSPTPTKT (disulfide 17-35) [AvBD-12A5]	lost their chemotactic activity	256	64	>256	>256	>256	256	>256	256	–	–	–	–	–
GPDS[Abu]NHDRGL[Abu]RVGN[Abu]NPGEYLAKY[Abu]FEPVIL[Abu][Abu]KPLSPTPTKT [AvBD-12A6]	lost their chemotactic activity	256	64	>256	>256	>256	256	>256	256	–	–	–	–	–
GPHSANHVRGLARVGNANPGLYLAKYAFIPVILAAKPLSPTPTKT [AvBD-12A1]	–	32	8	>256	256	128	32	256	32	95.6	88.6	72.3	77.2	–
GPRSSNHKRGLSRVGNSNPGKYLAKYAFRPVILAAKPLSPTPTKT [AvBD-12A2]	–	16	4	256	256	64	16	32	16	93.9	100	98	83.1	killing activity against S. Typhimurium retained at 150 mM NaCl ([4]; ATCC 14028, 2 h, 32 μg/ml): 30-60%; killing potency against E. coli retained at 150 mM NaCl [5]: approximately 80%; killing potency against P. aeruginosa retained at 150 mM NaCl ([6]; 32 μg/ml): approximately 80%; killing activity against S. aureus retained at 150 mM NaCl ([7]; 64 μg/ml): 30-60%
